Source: patent publication US4599424A, “5-substituted thiadiazole ureas and their use as herbicides” (priority 1979, dated 1986)

Experiments:
Crabgrass (CG) [1] = assay: Pre-emergence herbicide test, crabgrass; format: in vivo, Digitaria sanguinalis; details: two weeks
Description: (§1) Crabgrass (CG)--Digitaria sanguinalis
(§2) All crop and weed species were planted individually in 3" plastic pots containing potting soil. Four seeds each of corn, cotton, and snapbeans were seeded to a depth equal to the diameter of the seed. All other species were surface seeded and sprinkled with screened soil in an amount sufficient to cover the seed. Immediately after planting, all pots were watered by sub-irrigation in greenhouse trays. Pots for the pre-emergence phase were seeded one day before treatment.
(§3) Spray hood constants required to deliver the above volume are as follows:
(§4) Formulations for spray applications were prepared in 50 ml volumes with the following three components:
(§5) Formulations for the 4 lbs/acre rate were prepared by adjusting the amount of active ingredient accordingly.
(§6) Spray applications were made in a hood containing a removable belt and fixed spray nozzle. For passage through the spray hood, one pot of each specie (pre-emergence phase) was placed on the rear half of the flat. Treatments were removed to the greenhouse after spraying. Watering during the observation period was done only by sub-irrigation.
(§7) Two weeks after treatment, pre- and post-emergence injury or control was visually rated, and the results were as shown in the following tables. Pre-emergence data are provided in TABLE III and post-emergence data are provided in TABLE IV, for compounds having the formula illustrated in TABLE I. Correspondingly, pre-emergence and post-emergence data, respectively, are set forth in TABLES V AND VI, for compounds having the formula illustrated in TABLE II.

Turnip (TP) [2] = assay: Pre-emergence herbicide test, turnip; format: in vivo, Brassica sp.; details: two weeks
Description: (§8) Turnip (TP)--Brassica sp.
as §2, §3
(§9) Formulations for spray applications were prepared in 50 ml volumes with the following three components: […]
as §6, §7

Crabgrass (CG) [3] = assay: Post-emergence herbicide test, crabgrass; format: in vivo, Digitaria sanguinalis; details: two weeks
Description: as §1, §2
(§10) Planting dates for the post-emergence phase were varied so that all seedlings would reach the desired stage of development simultaneously. The proper stage of seedling development for treatment in the post-emergence phase is as follows:
as §3, §9, §6, §7

Turnip (TP) [4] = assay: Post-emergence herbicide test, turnip; format: in vivo, Brassica sp.; details: two weeks
Description: as §8, §2, §10
Pigweed and turnips: 1 or 2 true leaves above visible cotyledons.
as §3, §9, §6, §7

Cotton (CT) = assay: Post-emergence herbicide test, cotton; format: in vivo, Gossypium hirsutum var. DPL smooth leaf; details: two weeks
Description: Cotton (CT)--Gossypium hirsutum var. DPL smooth leaf
as §2, §10
cotton: first true leaf 1" in length; expanded cotyledons.
as §3, §4, §5, §6, §7

Bean (BN) = assay: Post-emergence herbicide test, bean; format: in vivo, Phaseolus vulgaris var. Black Valentine; details: two weeks
Description: Bean (BN)--Phaseolus vulgaris var. Black Valentine
as §2, §10
Beans: primary leaves expanded, growing point at primary leaf nodes.
as §3, §4, §5, §6, §7

[5] = test system: a variety of crops and weed species; assay: Pre- and post-emergence herbicide tests, overall assessment of TABLES III-VI; format: in vivo; details: from data of TABLES III-VI
Description: as §2, §10
Compounds were tested at rates of application equivalent to 8 lbs. of actual compound per acre in a spray volume of 38 gallons per acre. Spray hood constants required to deliver the above volume are as follows:
as §7
Typical of such compounds are: 1, 2, 5, 26, 36, and 37.

NC(=O)Nc1nnc(C(F)(F)F)s1 [Example 70]
PRE-EMERGENCE ACTIVITY, % CONTROL (Crabgrass (CG) [1]; 5 lb/acre): 10% | PRE-EMERGENCE ACTIVITY, % CONTROL (Crabgrass (CG) [1]; 10 lb/acre): 10% | PRE-EMERGENCE ACTIVITY, % CONTROL (Turnip (TP) [2]; 5 lb/acre): 10% | PRE-EMERGENCE ACTIVITY, % CONTROL (Turnip (TP) [2]; 10 lb/acre): 10% | POST-EMERGENCE ACTIVITY, % CONTROL (Crabgrass (CG) [3]; 5 lb/acre): 20% | POST-EMERGENCE ACTIVITY, % CONTROL (Crabgrass (CG) [3]; 10 lb/acre): 20% | POST-EMERGENCE ACTIVITY, % CONTROL (Turnip (TP) [4]; 5 lb/acre): 80% | POST-EMERGENCE ACTIVITY, % CONTROL (Turnip (TP) [4]; 10 lb/acre): 80% | POST-EMERGENCE ACTIVITY, % CONTROL (Cotton (CT); 5 lb/acre): 20% | POST-EMERGENCE ACTIVITY, % CONTROL (Cotton (CT); 10 lb/acre): 20% | POST-EMERGENCE ACTIVITY, % CONTROL (Bean (BN); 5 lb/acre): 50% | POST-EMERGENCE ACTIVITY, % CONTROL (Bean (BN); 10 lb/acre): 50%

CCSc1nnc(N(C)C(=O)NC)s1 [Example 89]
pest or weed control at 560.425 g/ha (Bean (BN); Phaseolus vulgaris, post-emergence, 336 h, 0.5 lb/acre): 100%

CNC(=O)Nc1nncs1 [Example 35]
herbicidal effectiveness and selectivity (in words) [5]: more selective

CNC(=O)N(C)c1nnc(C(F)(F)F)s1 [Example 36]
herbicidal effectiveness and selectivity (in words) [5]: extremely effective
